According to PubChem BioAssay AID330 (DTP/NCI, 2004):
Where “and” joins values, the source holds several entries; their conditions need not be identical. Equal values may be shown once. Toxic doses and inconclusive results are not listed.

Tested on: P388 leukemia ip, CD2F1 mice, survival T/C
Experiment: NCI In Vivo Anticancer Drug Screen. Data for tumor model P388 Leukemia (intraperitoneal) in CD2F1 (CDF1) mice
Details: endpoint: median survival time, higher = longer survival
In short: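 Mice carrying the transplanted tumor received test compound or vehicle. Survival was recorded in each group, and the value is the treated-group measurement divided by that of the vehicle-treated control group.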

[1] = dose: 100.0 mg/kg/injection, schedule: Q04DX003 (ip), vehicle: saline
[2] = dose: 200.0 mg/kg/injection, schedule: Q04DX003 (ip), vehicle: saline
[3] = dose: 400.0 mg/kg/injection, schedule: Q04DX003 (ip), vehicle: saline
[4] = dose: 60.0 mg/kg/injection, schedule: Q01DX005 (ip), vehicle: saline with Tween-80
[5] = dose: 120.0 mg/kg/injection, schedule: Q01DX005 (ip), vehicle: saline with Tween-80
[6] = dose: 240.0 mg/kg/injection, schedule: Q01DX005 (ip), vehicle: saline with Tween-80
[7] = dose: 50.0 mg/kg/injection, schedule: Q01DX005 (ip), vehicle: saline
[8] = dose: 100.0 mg/kg/injection, schedule: Q01DX005 (ip), vehicle: saline
[9] = dose: 200.0 mg/kg/injection, schedule: Q01DX005 (ip), vehicle: saline
[10] = dose: 50.0 mg/kg/injection, schedule: Q01DX005 (ip), vehicle: saline with Tween-80
[11] = dose: 100.0 mg/kg/injection, schedule: Q01DX005 (ip), vehicle: saline with Tween-80
[12] = dose: 200.0 mg/kg/injection, schedule: Q01DX005 (ip), vehicle: saline with Tween-80
[13] = dose: 60.0 mg/kg/injection, schedule: Q01DX005 (ip), vehicle: Klucel (hydroxypropylcellulose) (HPC)
[14] = dose: 120.0 mg/kg/injection, schedule: Q01DX005 (ip), vehicle: Klucel (hydroxypropylcellulose) (HPC)
[15] = dose: 50.0 mg/kg/injection, schedule: Q01DX005 (ip), vehicle: Klucel (hydroxypropylcellulose) (HPC)
[16] = dose: 100.0 mg/kg/injection, schedule: Q01DX005 (ip), vehicle: Klucel (hydroxypropylcellulose) (HPC)
[17] = dose: 200.0 mg/kg/injection, schedule: Q01DX005 (ip), vehicle: Klucel (hydroxypropylcellulose) (HPC)
[18] = dose: 240.0 mg/kg/injection, schedule: Q01DX005 (ip), vehicle: Klucel (hydroxypropylcellulose) (HPC)

For `COc1c2ccc(-c3ccccc3)oc-2cc(=O)c1C`, the T/C (dose: 2.0 mg/kg/injection, schedule: Q01DX005 (ip), vehicle: Klucel + Tween-80) was 100 % of control, the T/C (dose: 4.0 mg/kg/injection, schedule: Q01DX005 (ip), vehicle: Klucel + Tween-80) was 100 % of control and the T/C (dose: 8.0 mg/kg/injection, schedule: Q01DX005 (ip), vehicle: Klucel + Tween-80) was 109 % of control. The T/C (dose: 16.0 mg/kg/injection, schedule: Q01DX005 (ip), vehicle: Klucel + Tween-80) was 92 % of control.
With `CC(=O)/C=C1\C(=O)OCC1(C)C` the T/C [1] was 105 % of control, the T/C [2] was 108 % of control and the T/C [3] was 111 % of control.
`Cc1cc(Nc2ccc(N(C)C)cc2)c2ccc(N(C)C)cc2n1` was tested, and the T/C (dose: 100.0 mg/kg/injection, schedule: Q04DX002 (ip), vehicle: acid diluted with saline) was 95 % of control, the T/C (dose: 200.0 mg/kg/injection, schedule: Q04DX002 (ip), vehicle: acid diluted with saline) was 103 % of control and the T/C (dose: 400.0 mg/kg/injection, schedule: Q04DX002 (ip), vehicle: acid diluted with saline) was 96 % of control.
For `COC(=O)C(CO)Nc1ccccc1` (centres undefined), the T/C [4] was 103 % of control, the T/C [5] was 99 % of control and the T/C [6] was 96 % of control.
For `CC=O`, the T/C (dose: 0.5 % in 0.5 ml injection vol, schedule: Q01DX009 (ip), vehicle: water) was 100 % of control and 103 % of control and 109 % of control, the T/C (dose: 1.0 % in 0.5 ml injection vol, schedule: Q01DX009 (ip), vehicle: water) was 104 % of control and 112 % of control and the T/C (dose: 2.0 % in 0.5 ml injection vol, schedule: Q01DX009 (ip), vehicle: water) was 117 % of control.
For `CC(=O)OC1C=CC2Oc3ccc(C)cc3C1(C)O2` (centres undefined), the T/C [4] was 93 % of control, the T/C [5] was 106 % of control and the T/C [6] was 101 % of control.
`CC(CNC(=O)CCBr)NC(=O)CCBr` (centres undefined) was tested, and the T/C (dose: 12.5 mg/kg/injection, schedule: Q01DX009 (ip), vehicle: saline) was 105 % of control, the T/C (dose: 25.0 mg/kg/injection, schedule: Q01DX009 (ip), vehicle: saline) was 116 % of control and the T/C (dose: 400.0 mg/kg/injection, schedule: Q01DX009 (ip), vehicle: suspension in saline) was 116 % of control.
For `O=C(O)C1CC(O)CN1` (centres undefined), the T/C [7] was 106 % of control, the T/C [8] was 106 % of control and the T/C [9] was 110 % of control.
In the case of `COc1cccc(N=Nc2c(-c3ccccc3)nn(C(N)=S)c2C)c1`, the T/C [10] is reported as 100 % of control, the T/C [11] is reported as 89 % of control and the T/C [12] is reported as 91 % of control.
For `O=C(Cc1ccc2c(c1)OCO2)c1ccc(O)cc1O`, the T/C [4] was 99 % of control, the T/C [5] was 105 % of control and the T/C [6] was 98 % of control.
In the case of `Cc1ccc(C(=O)/C(=C/c2ccccn2)N=[N+]=[N-])cc1`, the T/C (dose: 100.0 mg/kg/injection, schedule: Q01DX001 (ip), vehicle: saline with Tween-80) is reported as 110 % of control, the T/C (dose: 200.0 mg/kg/injection, schedule: Q01DX001 (ip), vehicle: saline with Tween-80) is reported as 104 % of control and the T/C (dose: 400.0 mg/kg/injection, schedule: Q01DX001 (ip), vehicle: saline with Tween-80) is reported as 99 % of control.
With `O=C(O)c1cc(Cl)nnc1Cl` the T/C [7] was 109 % of control, the T/C [8] was 100 % of control and the T/C [9] was 104 % of control.
For `O=C1CCC(C2(O)c3ccccc3-c3ccccc32)C(=O)N1` (centres undefined), the T/C [4] was 95 % of control, the T/C [5] was 96 % of control and the T/C [6] was 95 % of control.
For `CN1c2ccccc2SC1(C)CCC(=O)O` (centres undefined), the T/C [13] was 105 % of control and the T/C [14] was 104 % of control.
For `C=C1C2CCC3(CCC4C5(C)CCCC4(C=[N+](CCO)C5)C3C2)C1O` (centres undefined), the T/C (dose: 25.0 mg/kg/injection, schedule: Q01DX009 (ip), vehicle: Klucel (hydroxypropylcellulose) (HPC)) was 94 % of control.
For `CC(O)(Cc1ccccc1)c1ccccc1` (centres undefined), the T/C (dose: 100.0 mg/kg/injection, schedule: Q04DX003 (ip), vehicle: saline with Tween-80) was 100 % of control, the T/C (dose: 200.0 mg/kg/injection, schedule: Q04DX003 (ip), vehicle: saline with Tween-80) was 104 % of control and the T/C (dose: 400.0 mg/kg/injection, schedule: Q04DX003 (ip), vehicle: saline with Tween-80) was 109 % of control.
In the case of `Cc1ccc(C)c2c(C#Cc3ccccc3)c3ccccc3c(C#Cc3ccccc3)c12`, the T/C [15] is reported as 96 % of control, the T/C [16] is reported as 90 % of control and the T/C [17] is reported as 90 % of control.
`O=C1CCSC(=S)N1N1CCN(N2C(=O)CCSC2=S)CC1` was tested, and the T/C (dose: 100.0 mg/kg/injection, schedule: Q01DX001 (ip), vehicle: Klucel (hydroxypropylcellulose) (HPC)) was 102 % of control and the T/C (dose: 200.0 mg/kg/injection, schedule: Q01DX001 (ip), vehicle: Klucel (hydroxypropylcellulose) (HPC)) was 93 % of control.
With `CC(=NCc1ccccc1)Nc1ccc(NC(=O)c2ccc(C(=O)Nc3ccc(NC(C)=NCc4ccccc4)cc3)cc2)cc1` the T/C (dose: 25.0 mg/kg/injection, schedule: Q01DX005 (ip), vehicle: Klucel (hydroxypropylcellulose) (HPC)) was 98 % of control, the T/C [15] was 95 % of control and the T/C [16] was 94 % of control. The T/C [17] was 99 % of control.
`COc1cc2c(cc1OC)C(C#N)(C(c1ccccc1)c1ccccc1)N(C(=O)c1ccccc1)C=C2` (centres undefined) was tested, and the T/C [4] was 100 % of control, the T/C [5] was 100 % of control and the T/C [6] was 96 % of control.
For `CCOC(=O)CCC1=C(C)c2cc3[nH]c(cc4[nH]c(cc5nc(cc1n2)C(CCC(=O)OCC)=C5C)c(C1CC1C(=O)OCC)c4C)c(C1CC1C(=O)OCC)c3C` (centres undefined), the T/C [15] was 102 % of control, the T/C [16] was 100 % of control and the T/C [17] was 101 % of control.
`CC(=O)O[C@]1(C(C)=O)CC[C@H]2[C@@H]3C[C@H](C)C4=CC(=O)NCC[C@]4(C)[C@H]3CC[C@@]21C` was tested, and the T/C (dose: 50.0 mg/kg/injection, schedule: Q01DX005 (ip), vehicle: Klucel + Tween-80) was 98 % of control, the T/C (dose: 100.0 mg/kg/injection, schedule: Q01DX005 (ip), vehicle: Klucel + Tween-80) was 93 % of control and the T/C (dose: 200.0 mg/kg/injection, schedule: Q01DX005 (ip), vehicle: Klucel + Tween-80) was 94 % of control.
For `COc1cc(C2c3cc4c(cc3OC3(N5CCCC5)CCCCC23)OCO4)cc(OC)c1OC` (centres undefined), the T/C [13] was 99 % of control, the T/C [14] was 93 % of control and the T/C [18] was 96 % of control.
In the case of `CN1C(=C2C=CC(=NS(=O)(=O)c3ccc(Cl)cc3)C=C2)Sc2ccccc21`, the T/C [1] is reported as 105 % of control, the T/C [2] is reported as 106 % of control and the T/C [3] is reported as 100 % of control.
With `CCO/C=C(\C)CC1([N+](=O)[O-])C(=O)c2ccccc2C1=O` the T/C [13] was 107 % of control, the T/C [14] was 107 % of control and the T/C [18] was 117 % of control.
With `O=C1c2ccccc2S(=O)(=O)CC12OC2c1ccc(Cl)cc1` (centres undefined) the T/C (dose: 100.0 mg/kg/injection, schedule: Q04DX002 (ip), vehicle: saline with Tween-80) was 88 % of control, the T/C (dose: 200.0 mg/kg/injection, schedule: Q04DX002 (ip), vehicle: saline with Tween-80) was 88 % of control and the T/C (dose: 400.0 mg/kg/injection, schedule: Q04DX002 (ip), vehicle: saline with Tween-80) was 94 % of control.
For `CN1C(=O)C(=O)N(CCCN2CCN(CCCN3C(=O)C(=O)N(C)C3=O)CC2)C1=O`, the T/C (dose: 50.0 mg/kg/injection, schedule: Q01DX009 (ip), vehicle: Klucel (hydroxypropylcellulose) (HPC)) was 104 % of control, the T/C (dose: 100.0 mg/kg/injection, schedule: Q01DX009 (ip), vehicle: Klucel (hydroxypropylcellulose) (HPC)) was 106 % of control and the T/C (dose: 200.0 mg/kg/injection, schedule: Q01DX009 (ip), vehicle: Klucel (hydroxypropylcellulose) (HPC)) was 98 % of control.
For `O=c1n(-c2ccccc2)c(=O)n2n1C1CC3c4ccccc4C1C2C31CC1` (centres undefined), the T/C [10] was 104 % of control, the T/C [11] was 101 % of control and the T/C [12] was 92 % of control.
With `O=C(O)CCC(=O)CCC(=O)c1ccc(O)c2ncccc12` the T/C [15] was 92 % of control, the T/C [16] was 105 % of control and the T/C [17] was 111 % of control.
With `CCOC(=O)C1CC1C1=C(C)c2cc3[n-]c(cc4nc(cc5[n-]c(cc1n2)c(C)c5CCC(=O)OC)C(CCC(=O)OC)=C4C)c(C)c3C1CC1C(=O)OCC.[Zn+2]` (centres undefined) the T/C [10] was 95 % of control, the T/C [11] was 89 % of control and the T/C [12] was 89 % of control.
`O=C1OCCN1/N=C\c1ccccc1` was tested, and the T/C (dose: 50.0 mg/kg/injection, schedule: Q01DX009 (ip), vehicle: saline) was 94 % of control, the T/C (dose: 100.0 mg/kg/injection, schedule: Q01DX009 (ip), vehicle: saline) was 87 % of control and the T/C (dose: 200.0 mg/kg/injection, schedule: Q01DX009 (ip), vehicle: saline) was 90 % of control.
For `O=C(OCc1ccccc1)C(=O)c1c(O)n(-c2ccccc2)c2ccccc12`, the T/C (dose: 100.0 mg/kg/injection, schedule: Q04DX002 (ip), vehicle: saline + alcohol) was 99 % of control, the T/C (dose: 200.0 mg/kg/injection, schedule: Q04DX002 (ip), vehicle: saline + alcohol) was 100 % of control and the T/C (dose: 400.0 mg/kg/injection, schedule: Q04DX002 (ip), vehicle: saline + alcohol) was 96 % of control.
